Measured values taken from patent US7601501B2, “Controlling osteogenesis by inhibition of osteogenic suppressors” (The Scripps Research Institute, priority 2006, dated 2009).
“Also recorded” adds a separate entry of the source.

What was measured:
[1] = tested on: human mesenchymal stem cells (hMSCs); assay: Compound treatment: adipogenic differentiation / cell fate switch of hMSCs; assay type: cell-based; conditions: for differentiation of hMSCs into mature adipocytes: combined treatment with dexamethasone; for adipogenic differentiation of hMSCs promoted by compound: especially in the presence of dexamethasone (DEX); for cell fate switch from osteogenic to adipogenic: hMSCs treated with the OS media
Description: Cells were rinsed with PBS twice, fixed in 10% formalin solution for 20 minutes, rinsed with PBS twice and dH2O once, washed with propylene glycol for 5 minutes, and stained with Oil red in propylene glycol (I2722A, Newcomer Supply) for 30 minutes. Cells were then washed with 85% propylene glycol for 5 minutes, rinsed with dH2O 3 times and preserved in 50% glycerol.
(§1) 8-CPT-cAMP, Na (cat# 116812), 5-Iodotubercidin (cat# 407900), Prostaglandin E2 (PGE2, cat# 538904), SB 202190 (cat# 559388) and U0126 (cat# 662005) were purchased from Calbiochem; N6,2′-O-Dibutyryl-cAMP (cat# D0260-5MG), forskolin (cat# F6886), ascorbic acid 2-phosphate (cat# 49752-10G), β-glycerophosphate (G-6251), dexamethasone (D8893), 3-isobutyl-1-methylxanthine (IBMX, I5879) and Insulin (I 9278) were purchased from Sigma/Aldrich/Fluka.
(§2) Since the targeted genes are all positively involved in intracellular cAMP signaling, we tested the effect of two compounds of opposing function on cAMP production on osteogenic differentiation of hMSCs, ADK inhibitor 5-iodotubercidin and ADCY activator forskolin (Cottam, H. B. et al., J Med Chem 36:3424-3430 (1993); de Souza, N. J. et al., Med Res Rev 3:201-219 (1983)). […] ATP has been shown as a ligand for P2RY11 receptor (Communi et al., 1997). […] The present observations are consistent with the conclusion that […] in hMSCs, and vice versa.

[2] = tested on: human mesenchymal stem cells (hMSCs); assay: Compound treatment: OS-induced osteogenic differentiation of hMSCs (ALP / alizarin red staining); assay type: cell-based; conditions: for osteogenic effect of the OS media on hMSCs: compound combined with OS treatment, ALP and/or alizarin red staining
Description: as §1, §2

[3] = tested on: human mesenchymal stem cells (hMSCs); assay: Alizarin red staining for calcium phosphate deposits (ECM mineralization, bone cell maturation); assay type: cell-based; conditions: for intensity of alizarin red staining (bone cell maturation), 3+9OS: OS started three days after siRNA transfection and continued for 9 days
Description: Cells were rinsed with PBS twice, stained in alizarin red solution (cat# vw3611-2, VWR) for 8 minutes at room temperature, washed with PBS again, fixed in 10% formalin solution (cat# HT-5014, Sigma) for 20 minutes, then rinsed with water and air dried.
Bone cell maturation is accompanied by extracellular matrix (ECM) mineralization (John Bilezikian et al., Principles of bone biology, Vol 1, 2nd edn: Academic Press) (2002)). […] […] These observations are consistent with the conclusion that the targeted genes of the ten effective hit siRNAs not only play inhibitory roles in osteogenic specification of hMSCs, but also in bone cell maturation. […] Furthermore, in osteoporotic patients, the number of adipocytes was increased in the marrow, implying a change of cell fate disposition from osteoblast lineage to adipocyte lineage (Justesen, J. et al., Biogerontology 2:165-171 (2001); Meunier, P. et al., Clin Orthop Relat Res 80:147-154 (1971)). We therefore examined the effect of our hit siRNAs on adipogenic differentiation of hMSCs by combined treatment with an adipogenic inducing cocktail (100 μg/ml IBMX, 1 μM DEX and 10 μg/ml insulin).

[4] = tested on: CREB; assay: Western blot of phospho-CREB in transfected hMSCs; assay type: cell-based, human; conditions: 3 days after transfection, compared to siCon treated or untreated
Description: Cell lyses buffer contains 20 mM Tris pH8.0, 1 mM EDTA, 150 mM NaCl and 0.5% NP-40, and before usage, protease inhibitor cocktail (Cat# p8340, Sigma, 1:100 dilution) and phosphatase inhibitor cocktail 2 (Cat# p5726, sigma, 1:100 dilution) were added. Proteins (60 μg/well) were separated in 12% Novex Tris-Glycine gel (Cat# EC6008 box, Invitrogen) and transferred to Nitrocellulose membrane (Cat# LC2001, Invitrogen) using the XCell II blot module system (Cat# EI9051, Invitrogen). The membrane was blocked in 5% milk/PBST for 1 hour at room temperature, incubated over night at 4 degree with primary antibody, washed 3 times with PBST (0.05% Tween 20 in PBS), followed by one hour incubation with secondary antibody in 5% milk/PBST and 3 times wash with PBST at room temperature. For antibody against pCREB however, PBST was substituted with PBS in all steps except for the last one. Antibody-bound proteins were detected utilizing ECL Western blotting detection reagent (Amersham Biosciences).
Anti-phospho-CREB was purchased from Upstate Biotechnology (cat# 06-519); Anti-phospho-p38 was purchased from Cell signaling technology (cat# 9910).
To find out whether CREB (cAMP Responding Element Binding protein), a common downstream effector of cAMP signaling pathway, is involved in mediating cAMP signaling controlled differentiation of hMSCs, we checked the expression level of the active form of CREB proteins in cells 3 days after siP2RY11, siADK, siGNAS, siSLC12a2 or siCon transfection. […] To further examine the role of CREB in osteogenesis and adipogenesis, a synthetic 24-mer CRE decoy oligonucleotide that can compete with endogenous CRE enhancers for binding proteins was transfected into hMSCs (Park, Y. G. et al., J Biol Chem 274:1573-1580 (1999)), which were then subjected to the treatment of osteogenic or adipogenic induction media.

## Nc1ncnc2c1nc(Sc1ccc(Cl)cc1)n2[C@@H]1O[C@@H]2COP(=O)(O)O[C@H]2[C@H]1O [8-CPT-cAMP]
[1]
  differentiation of hMSCs into mature adipocytes: sufficient to differentiate hMSCs into mature adipocytes
  adipogenic differentiation of hMSCs promoted by compound: promoted hMSCs to undergo adipogenic differentiation
  cell fate switch from osteogenic to adipogenic: could switch cell fate commitment from osteogenic to adipogenic
[1]; listed as CPT-cAMP
  cell fate switch from osteogenic to adipogenic: could switch cell fate determination from osteogenic to adipogenic differentiation

## Nc1ncnc2c1ncn2[C@@H]1O[C@H](COP(=O)(O)OP(=O)(O)OP(=O)(O)O)[C@@H](O)[C@H]1O [ATP]
[2]; OS and ATP added on the third day after siRNA transfection, continued for a week
  siP2RY11 and siSLC12a2 induced osteogenesis in combination with OS (ALP staining): dosage-dependent inhibitory effect
[2]
  osteogenic effect of the OS media on hMSCs: inhibited; also recorded: dosage-dependent inhibitory effect
[1]; dosage dependent manner
  number of cells undergoing adipogenic differentiation: slightly increases

## CCCC(=O)Nc1ncnc2c1ncn2[C@@H]1O[C@@H]2COP(=O)(O)O[C@H]2[C@H]1OC(=O)CCC [DB-cAMP, N6,2′-dibutyryl-cAMP]
[1]
  differentiation of hMSCs into mature adipocytes: sufficient to differentiate hMSCs into mature adipocytes
  adipogenic differentiation of hMSCs promoted by compound: promoted hMSCs to undergo adipogenic differentiation

## CC(C)Cn1c(=O)n(C)c(=O)c2[nH]cnc21 [IBMX, 3-isobutyl-1-methylxanthine]
[1]
  adipogenic differentiation of hMSCs promoted by compound: promoted hMSCs to undergo adipogenic differentiation
  cell fate switch from osteogenic to adipogenic: could switch cell fate determination from osteogenic to adipogenic differentiation

## COc1cccc(-c2cc(=O)c3ccccc3o2)c1N [PD98059]
[2]
  osteogenic effect of the OS media on hMSCs: inhibited the osteogenic inducing effect of OS

## CCCCC[C@H](O)/C=C/[C@H]1[C@H](O)CC(=O)[C@@H]1C/C=C\CCCC(=O)O [PGE2, Prostaglandin E2]
[1]
  cell fate switch from osteogenic to adipogenic: could switch cell fate determination from osteogenic to adipogenic differentiation

## Oc1ccc(-c2nc(-c3ccncc3)c(-c3ccc(F)cc3)[nH]2)cc1 [SB202190]
[2]
  osteogenic effect of the OS media on hMSCs: inhibited the osteogenic inducing effect of OS

## CCCAGGUCUCCGAUGAACU (siRNA; listed as RNA, chemistry not fully specified) [siBCL212, siRNA targeting BCL2-like 2]
[3]
  intensity of alizarin red staining (bone cell maturation), 3+9OS: modest enhancement

## CCCGAAAACAUUGCUAGCA (siRNA; listed as RNA, chemistry not fully specified) [siGBDR1, siRNA targeting putative glialblastoma cell differentiation-related]
[3]
  intensity of alizarin red staining (bone cell maturation), 3+9OS: dramatically enhanced

## CCUCUUCGUGGCUACAUCU (siRNA; listed as RNA, chemistry not fully specified) [siSLC12a2, siRNA targeting solute carrier family 12, member 2]
[3]
  intensity of alizarin red staining (bone cell maturation), 3+9OS: dramatically enhanced
[4]
  level of pCREB protein (Western blot): increased

## GCCACACAAAGCAGCAACA (siRNA; listed as RNA, chemistry not fully specified) [siADK, siRNA targeting adenosine kinase]
[3]
  intensity of alizarin red staining (bone cell maturation), 3+9OS: dramatically enhanced
[3]; siRNA initial 2-4 days followed by OS (2+6OS, 3+5OS, 4+4OS), vs siCon
  intensity of alizarin red staining, sequential siRNA then OS: clearly enhanced the intensity of alizarin red staining; also recorded: enhancing effect
[4]
  level of pCREB protein (Western blot): increased

## GGAGAUCAACAAGCAUUCA (siRNA; listed as RNA, chemistry not fully specified) [siADCY8, siRNA targeting adenylate cyclase 8]
[3]
  intensity of alizarin red staining (bone cell maturation), 3+9OS: weak enhancement

## UCGAAGAUUGAGGACUACU (siRNA; listed as RNA, chemistry not fully specified) [siGNAS, siRNA targeting GNAS complex locus]
[3]
  intensity of alizarin red staining (bone cell maturation), 3+9OS: dramatically enhanced
[4]
  level of pCREB protein (Western blot): increased

## UGCCAAAGAGGAUGUACAU (siRNA; listed as RNA, chemistry not fully specified) [siTBX3, siRNA targeting T-box 3 (ulnar mammary syndrome)]
[3]
  intensity of alizarin red staining (bone cell maturation), 3+9OS: no significant effect

## UGCGAGCCAAGAUGGACAA (siRNA; listed as RNA, chemistry not fully specified) [siKCNT1, siRNA targeting potassium channel, subfamily T, member 1]
[3]
  intensity of alizarin red staining (bone cell maturation), 3+9OS: dramatically enhanced

## UGCGGGUGCUCAACGUGGA (siRNA; listed as RNA, chemistry not fully specified) [siP2RY11, siRNA targeting purinergic receptor P2Y, G-protein coupled, 11]
[3]
  intensity of alizarin red staining (bone cell maturation), 3+9OS: dramatically enhanced
[4]
  level of pCREB protein (Western blot): increased

## UGUGCUACACAGUCAUUAC (siRNA; listed as RNA, chemistry not fully specified) [siBIRC4, siRNA targeting baculoviral IAP repeat-containing 4]
[3]
  intensity of alizarin red staining (bone cell maturation), 3+9OS: weak enhancement
